Consider 97 compounds from ChEMBL document CHEMBL3507680, “University of Dundee, Gates Library screen for HepG2 cell viability”.

This data set can be described thus: Human HepG2 cell viability assay in 384 well format. Particulars: HepG2 cells, read-out: Inhibition. Set-up: dose 125 nL, time 70.5 hour; concentration not given beside the values. Format: toxicity, cell-based.

For the compound `CSc1ccc(C(=O)C2CCCN(C(=O)CCCn3cncn3)C2)cc1` (configuration not stated), the cytotoxicity at 70.5 h is -6.96%.
The value for `O=C(CSCC1CC1)N1C[C@@H]2CC[C@H](C1)N(Cc1ccccn1)C2=O` was -8.12%; that for `C[C@@H]1CN(C2CCN(Cc3cnc(-c4cccs4)nc3)CC2)C[C@H](C)O1` was 1.06%; that for `CCc1nc(C)sc1C(=O)N1CCN(c2ncccc2C)CC1` was -4.24%.
For the compound `CSCc1noc(C2CCC(=O)N(CCc3ccccc3)C2)n1` (configuration not stated), the cytotoxicity at 70.5 h was -13.9%.
The value for `Cc1nc(CC(=O)N2CCCN(c3ccc(F)cc3)CC2)cs1` was -3.38%.
The value for `CCCOC1CCCN(C(=O)Cn2cccc(C(F)(F)F)c2=O)C1` (configuration not stated) was -6.8%.
In the case of `CC(C)[C@H](Nc1nc(C2CCCC2)nc2c1cnn2C)C(N)=O` it was -12.3%; in that of `CC(C)CN1C[C@@H](C(=O)O)C[C@@H](C(=O)NCc2ccncc2)C1`, -2.12%; in that of `CC(=O)c1ccc(N2CCCC(CO)(Cc3ccccc3F)C2)nc1` (configuration not stated), 20.4%.
Consider `CCCNc1ncc(CN2CCN(C)C(=O)C2C)cn1` (configuration not stated), for which the cytotoxicity at 70.5 h came to 16%.
In the case of `Cc1ncsc1CCC(=O)N1CCN(CCn2cncn2)CC1` it was -10.7%.
Turning to `COCC(=O)NCc1cc2n(n1)CCCN(CCCC1CCCC1)C2`, the cytotoxicity at 70.5 h is -2.24%.
As for `NC(=O)c1cncc(N2CCN(Cc3cccc4nsnc34)CC2)n1`, the cytotoxicity at 70.5 h is -5.47%.
In the case of `Cc1cncc(C(=O)N2C[C@@H](C(=O)O)[C@H](C(C)C)C2)c1` it was 28.4%; in that of `O=C(c1csc2nc(-c3ccc(Cl)cc3)cn12)N1CCCC(CO)C1` (configuration not stated), -5.49%.
In the case of `COCCn1c(=O)n(Cc2cccc(F)c2F)c2cc(C(=O)O)ccc21` it was 18.8%; in that of `Cc1cccc(OC2CCN(C(=O)CNC(=O)N(C)C)CC2)c1`, -0.834%.
Consider `COc1cccc(OCC2CCCN(C(=O)c3cnn(C)c3)C2)c1` (configuration not stated), for which the cytotoxicity at 70.5 h worked out at 27.4%.
The value for `Cc1nc(C)c(-c2nnc(SCC(=O)O)n2C(C)c2ccccc2)o1` (configuration not stated) was -2.71%; that for `CO[C@H]1CNC[C@@H]1NC(=O)c1cc(C)nc2c(C)cc(C)cc12` was 2.49%.
In the case of `CCC(C)N(Cc1sccc1C)C(=O)c1ccc2cccnc2n1` (configuration not stated) it was -11.7%.
Consider `CCOc1ccc2[nH]c(=O)c(CN3CCC(N4CCCC4)CC3)cc2c1`, for which the cytotoxicity at 70.5 h is -4.41%.
For `Cc1ccsc1[C@@H]1CCN(C(=O)Cc2ccc(O)cc2)C[C@H]1O`, the cytotoxicity at 70.5 h is -2.32%.
The value for `CC1=C(CCN2C[C@H](O)[C@@H](N3CCOCC3)C2)C(C)(C)CCC1` was -8.76%; that for `Cn1c(Cn2ccnc2)nnc1C1CCN(C(=O)c2ccoc2)CC1` was -7.81%; that for `COc1ncc(-c2nccn2C(C)CCn2cccn2)cn1` (configuration not stated) was 2.54%.
As for `CCC[C@H]1CN(C2CCOCC2)C[C@@H]1NC(=O)CCCn1ccnc1`, the cytotoxicity at 70.5 h is -2.79%.
The value for `O=C(Nc1ccccc1N1CCOC1=O)N1CCSCC1` was 14.3%; that for `COc1cccc2c(=O)n(C3CCNCC3)cnc12` was -18.3%.
The value for `CCN(CC)Cc1cc(C(=O)N2CCCC(CC)(C(=O)O)C2)c(C)o1` (configuration not stated) was -3.17%; that for `Cc1ccc2ncn(C(C)Cn3cccn3)c(=O)c2c1` (configuration not stated) was -5.52%.
Take `O=C(CCn1cncn1)N1C[C@H]2CC[C@@H]1CN(Cc1cccnc1)C2`: the cytotoxicity at 70.5 h was -9.48%.
Regarding `CCc1nnc(CN(C)C(=O)C(CC)n2c(CC)nc3ccccc32)o1` (configuration not stated), the cytotoxicity at 70.5 h is 3.98%.
Regarding `O=C1[C@@H]2C[C@H](O)CCN2C(=O)CN1CCSc1ccccn1`, the cytotoxicity at 70.5 h was determined as 0.109%.
In the case of `C1=CCN(c2nc(CC3CC3)nc3c2CCN(C2CCOCC2)CC3)C1` it was -1.95%; in that of `COc1cc(N2CCN(Cc3ccsc3)C(CCO)C2)nc(N)n1` (configuration not stated), 9.1%.
Turning to `CCNC(=O)[C@@H]1C[C@@H](N)CN1Cc1ccc2cccc(Cl)c2n1`, the cytotoxicity at 70.5 h was 20.1%.
Regarding `OCc1cn(CC2CCN(C3CCSC3)CC2)nn1` (configuration not stated), the cytotoxicity at 70.5 h was -8.28%.
In the case of `CCCOC(=O)N1CCc2cccc(S(=O)(=O)N3CCOCC3)c2C1` it was -8.66%.
The value for `CCCN1CCCn2nc(CNC(=O)CN(C)C3CCCC3)cc2C1` was -8%; that for `Cc1nc(CC(=O)NCCN2CCC(c3ccccc3C)C2)cs1` (configuration not stated) was -8.35%; that for `O=C(O)C1(Oc2ccccc2F)CCN(C/C=C/c2ccco2)CC1` was -7.74%.
Regarding `NC(=O)c1csc(N2C[C@@H](CN3CCC(O)CC3)[C@@H](CO)C2)n1`, the cytotoxicity at 70.5 h is -6.31%.
In the case of `CN(Cc1cc(C2CC2)[nH]n1)Cc1cc2ccc(F)cc2[nH]c1=O`, the cytotoxicity at 70.5 h is -12.6%.
Take `CN(C)CCN1CC(C(=O)NCc2cn3cccnc3n2)CC1=O` (configuration not stated): the cytotoxicity at 70.5 h is -5.17%.
As to `CCc1ncc(C(=O)NCCN2CCNC2=O)cn1`, the cytotoxicity at 70.5 h was -5.68%.
Consider `COCCN1CCN(Cc2ccc(C(C)=O)cc2)[C@H]2CS(=O)(=O)C[C@H]21`, for which the cytotoxicity at 70.5 h was -5.05%.
In the case of `Cc1ncc(S(C)(=O)=O)c(N2CCCN(Cc3ccccn3)CC2)n1` it was -5.13%; in that of `CCC[C@@H]1CN(c2ncnc3ccsc23)C[C@H]1NS(C)(=O)=O`, -8.21%.
Consider `Fc1ccc(CC2CCN(Cc3nccs3)CC2)cc1`, for which the cytotoxicity at 70.5 h is -7.34%.
The value for `CN(C)CCN1CC2(CCCN(c3ccc(Cl)cn3)C2)CCC1=O` (configuration not stated) was 3.01%; that for `CN(C)C[C@H]1C[C@@H](CO)CN(C(=O)CCc2nc(Cl)n[nH]2)C1` was 4.5%; that for `CSc1ccc(CN2CCn3nc(CNC(C)=O)cc3C2)cc1` was -28.8%.
In the case of `Cc1ccn(CCNc2ncnc3c2CCN(S(C)(=O)=O)CC3)n1`, the cytotoxicity at 70.5 h is 1.8%.
In the case of `CCCc1nnc(N2CCN(c3cccc(OC)c3)C(=O)C2)o1` it was 15.6%.
The value for `O=C(NCCCn1ccnn1)C1CCCN(C2CCCC2)C1` (configuration not stated) was -1.79%; that for `CSCCCN1CC[C@@]2(O)CCN(c3ncccn3)C[C@H]2C1` was -2.32%.
The value for `CCC(Nc1ncccn1)c1cccnc1` (configuration not stated) was 8.36%.
As to `CC(C)OC(=O)N1CCCC2(CCC(=O)N(CCc3c[nH]cn3)C2)C1` (configuration not stated), the cytotoxicity at 70.5 h is -1.99%.
The value for `CN(CCO)C[C@@H]1CN(Cc2ccccc2C#N)C[C@@H]1CO` was -3.5%; that for `O=C(COc1ccccc1N1CCCC1)N1CCN[C@H]2CS(=O)(=O)C[C@H]21` was -7.17%.
As to `O=C(N1CCOCC1)N1CCC(Nc2ccncn2)CC1`, the cytotoxicity at 70.5 h is -7.28%.
In the case of `O=C(Nc1ccccc1OCCc1ccccn1)N1CCOCC(O)C1` (configuration not stated) it was -8.87%; in that of `CC(C)N1CCCC(C(=O)NCCc2csc(-c3ccncc3)n2)C1` (configuration not stated), 22%; in that of `COc1ccc(CCCC(=O)N2C[C@H](C3CC3)[C@@H](N(C)C)C2)cc1`, -9.86%.
In the case of `O=C(NCC(O)c1ccc(F)cc1)C1CCN(C2CCCCC2)CC1` (configuration not stated) it was -7.05%; in that of `CCCc1nncn1-c1cc(OC)ccc1OC`, -1.39%.
Consider `CCCn1cnnc1CNC1CCSC1` (configuration not stated), for which the cytotoxicity at 70.5 h was -7.63%.
In the case of `CCOc1ccc2[nH]c(=O)c(CN3CCCCC3C)cc2c1` (configuration not stated) it was -3.42%.
In the case of `CCc1ccc(S(=O)(=O)N2CC[C@@](O)(CCOC)[C@H](C)C2)cc1` it was -10.2%.
The value for `Cc1csc2ncnc(N3CCCC(Cn4cc(C(C)(C)O)nn4)C3)c12` (configuration not stated) was -6.36%; that for `O=C1CC2(CCN(Cc3ccc(C(F)(F)F)nc3)CC2)CN1` was 8.74%; that for `C[C@@H]1CN(C(=O)c2c[nH]c(=O)c(Cl)c2)CC[C@@]1(O)C1CCOCC1` was -1.04%.
Turning to `CCC(CO)N(Cc1ccco1)Cc1c(C)nn(C)c1Cl` (configuration not stated), the cytotoxicity at 70.5 h was found to be 3.17%.
The value for `CCc1cc(C(C)Nc2nc(-c3cccnc3)nc3c2CNC3)on1` (configuration not stated) was -5.83%.
The value for `OC1(CNCCc2csc(-c3cccnc3)n2)CCNC1` (configuration not stated) was -14.2%; that for `COc1ccc(OC2CCN(C(=O)C3CCCN(C)C3)CC2)cc1` (configuration not stated) was -0.196%.
In the case of `Cn1c(N2CCOCC2)nc2cc(C(=O)N3CCC(O)(CO)C3)ccc21` (configuration not stated) it was -2.61%.
Regarding `CCn1c(N)nc2cc(C(=O)N3Cc4ccccc4C3)cnc21`, the cytotoxicity at 70.5 h is -4.1%.
The value for `Cc1cc(C)c2c(N(C)CC3CCOC3)ncnc2n1` (configuration not stated) was -4.45%; that for `Cn1cccc1C(=O)N1CCC(c2nccn2Cc2ccncc2)CC1` was 25.5%.
In the case of `NCCc1cccc(CN2CCN(c3cccc(Cl)c3)C(=O)C2)c1` it was -7.22%; in that of `Cc1c[nH]c(CN2CCCCC2CCN(C)C)c(C)c1=O` (configuration not stated), -10.5%; in that of `O=C(c1ccc(C2CCCO2)s1)N1CCCOCC1` (configuration not stated), -8.57%.
For the compound `COCc1cn(CC2CCN(Cc3cc(C)[nH]n3)CC2)nn1`, the cytotoxicity at 70.5 h stood at 20%.
As to `NS(=O)(=O)CCCC(=O)N1CCC2(CC1)c1ccccc1CC2O` (configuration not stated), the cytotoxicity at 70.5 h is -4.4%.
Regarding `Cc1cc(CN2CCCC(CNC(=O)Cn3cccn3)C2)oc1C` (configuration not stated), the cytotoxicity at 70.5 h is -6.83%.
The value for `COc1ccccc1[C@@H]1CN(CC2CCC2)C[C@H]1C(=O)O` was -5.88%; that for `Cc1cc(C)n(CC(C)Nc2ncnc3c2CCNC3)n1` (configuration not stated) was -11.9%; that for `Oc1cc(CNCCCN2CCCC2)nc2ccc(F)cc12` was 12.5%.
In the case of `Clc1ccccc1OC1CCN(CC2CCOC2)CC1` (configuration not stated) it was 3.25%; in that of `Oc1cc(CCC2CCCCN2)cc(-c2cccnc2)c1` (configuration not stated), -0.0954%.
Regarding `O=C(c1ccc(S(=O)(=O)NCC(F)F)cc1)N1CC[C@H]2CNC[C@H]21`, the cytotoxicity at 70.5 h was determined as 0.673%.
For `Cc1nnsc1C(=O)N1CCCC(c2nccn2Cc2cscn2)C1` (configuration not stated), the cytotoxicity at 70.5 h is -0.672%.
The value for `CN1C[C@@H]2CC[C@H](CC1=O)N2C(=O)c1cc2ccccc2[nH]c1=O` was -6.85%; that for `CC(C)Oc1cc(N2CCN(Cc3ccsc3)C(CCO)C2)nc(N)n1` (configuration not stated) was -17%.
